Key:
Cbl-b [1] = target: T1, Cbl-b (Homo sapiens, UniProt Q13191); experiment: Cbl-b inhibition assay (Cbl-b activity assay, FRET, Biological Example 1; 100 mM NaCl, 60 nM Src kinase); format: biochemical; conditions: upper bound stated in text lists; read-out: IC50 values in the Cbl-b inhibition assay of Biological Example 1
Outline: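 Inhibitor activity is measured as reduced terbium-to-fluorescein FRET between streptavidin-terbium on biotinylated Cbl-b and Bodipy-fluorescein ubiquitin carried by an irreversible UbcH5B-Ub conjugate, binding of which depends on Src phosphorylation of Cbl-b.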

T-cell [2] = experiment: CD25 cell surface staining on T-cells co-stimulated with anti-CD3 and anti-CD28 antibody (Biological Example 2); format: cell-based, human; conditions: Homo sapiens, T-cell, primary human total T-cells, baseline = anti-CD3/anti-CD28 stimulated cells without inhibitor, read-out: CD25 staining, Anti-CD3/Anti-CD28 stimulation, fold change over baseline; for fold induction at 0.3 µM: 0.3 μM compound; for fold induction at 1 µM: 1 μM compound; for fold induction at 4 µM: 4 μM compound
Outline: (§1)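 T-cells were stimulated with anti-CD3 antibody alone or with anti-CD28 antibody, in the presence or absence of Cbl-b inhibitor. IL-2 secretion or CD25 surface staining was measured, and values expressed as fold over the uninhibited baseline […].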

Cbl-b [3] = target: T1, Cbl-b; experiment: Cbl-b activity assay (Cbl-b inhibition assay), TR-FRET of Cbl-b interaction with UbcH5B-Ub; format: biochemical; conditions: assay buffer with 100 mM NaCl, 60 nM Src kinase; read-out: Cbl-b activity IC50
Outline: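 UbcH5B (C85K) conjugated to N-terminally Bodipy-Fluorescein-labeled ubiquitin served as the fluorescent partner. After compound preincubation, Src kinase (60 nM) with 1 mM ATP and 5 mM MgCl2 (final) was added for 1.5 h, followed by a further 1 h incubation. Some values were obtained with 50 mM NaCl and 30 nM Src.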

Cbl-b (residues 36-427) = Cbl-b (residues 36-427) (Homo sapiens, UniProt Q13191); experiment: Cbl-b binding assay (SPR, Biacore T200); conditions: 20° C., 1:1 binding model
Outline: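 Steps: capture protein on NeutrAvidin surface; inject compound dilutions (8 or 10 points from 100 or 50 μM) 50 s; allow 90-180 s dissociation; regenerate 20 s with 0.3 M NaCl. Runs at 20° C in HEPES pH 7.5/100 mM NaCl/2% DMSO; 1:1 fitting.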

T-cell [4] = experiment: CD25 cell surface staining on T-cells stimulated with anti-CD3 antibody alone (Biological Example 2); format: cell-based; conditions: primary human total T-cells, baseline = anti-CD3/anti-CD28 stimulated cells without inhibitor, read-out: CD25 staining, Anti-CD3 stimulation, fold change over baseline; for fold induction at 1 µM: 1 μM compound; for fold induction at 8 µM: 8 μM compound
T-cell [5] = experiment: IL-2 secretion from T-cells co-stimulated with anti-CD3 and anti-CD28 antibody (Biological Example 2); format: cell-based, human; conditions: Homo sapiens, T-cell, primary human total T-cells, baseline = anti-CD3/anti-CD28 stimulated cells without inhibitor, read-out: IL-2 secretion, Anti-CD3/Anti-CD28 stimulation, fold change over baseline; for fold induction at 0.3 µM: 0.3 μM compound; for fold induction at 1 µM: 1 μM compound; for fold induction at 4 µM: 4 μM compound
Outline: as §1

T-cell [6] = experiment: IL-2 secretion from T-cells stimulated with anti-CD3 antibody alone (Biological Example 2); format: cell-based; conditions: primary human total T-cells, read-out: IL-2 secretion, Anti-CD3 stimulation, fold change over baseline; for fold induction at 1 µM: 1 μM compound; for fold induction at 8 µM: 8 μM compound

Chain of Cbl-b (residues 36-427) (Q13191 36-427): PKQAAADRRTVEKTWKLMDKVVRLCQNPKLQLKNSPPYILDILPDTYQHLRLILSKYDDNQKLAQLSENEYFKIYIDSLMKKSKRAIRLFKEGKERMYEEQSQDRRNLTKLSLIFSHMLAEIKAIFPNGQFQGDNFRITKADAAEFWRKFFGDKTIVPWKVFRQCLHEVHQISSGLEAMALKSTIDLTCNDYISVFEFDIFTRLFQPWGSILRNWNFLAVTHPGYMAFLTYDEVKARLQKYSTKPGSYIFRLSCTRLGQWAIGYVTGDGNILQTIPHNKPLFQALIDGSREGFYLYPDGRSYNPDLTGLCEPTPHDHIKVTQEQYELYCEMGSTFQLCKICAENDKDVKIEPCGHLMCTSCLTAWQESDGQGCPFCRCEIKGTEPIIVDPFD
T1 sequence (Q13191 36-427): as above

## Cn1cnnc1C(F)(F)[C@](C)(F)c1cccc(N2Cc3c(cc(CN4CC[C@@H](S(C)(=O)=O)C4)cc3C(F)(F)F)C2=O)c1 [Compound 458, 6-(((R)-3-(Methylsulfonyl)pyrrolidin-1-yl)methyl)-2-(3-((R)-1,1,2-trifluoro-1-(4-methyl-4H-1,2,4-triazol-3-yl)propan-2-yl)phenyl)-4-(trifluoromethyl)isoindolin-1-one]
Cbl-b [1]
  IC50: ≤ 100 nM
T-cell [2]
  fold induction at 0.3 µM: 1.01 to 1.3
  fold induction at 1 µM: 1.01 to 1.3
  fold induction at 4 µM: 1.31 to 1.5
Cbl-b [3]
  IC50: < 100 nM
Cbl-b (residues 36-427)
  Kd: < 100 nM
T-cell [4]
  fold induction at 1 µM: 0.801 to 1
  fold induction at 8 µM: > 1
T-cell [5]
  fold induction at 0.3 µM: 2.51 to 5
  fold induction at 1 µM: 5 to 7.5
  fold induction at 4 µM: > 7.5
T-cell [6]
  fold induction at 1 µM: 0.151 to 0.2
  fold induction at 8 µM: > 0.201

## Cc1c[nH]nc1C[C@@H](C)c1cccc(N2Cc3c(cc(C(=O)N4C[C@@H](O)C[C@H]4C)cc3C(F)(F)F)C2=O)c1 [Compound 464, 6-((2R,4S)-4-hydroxy-2-methylpyrrolidine-1-carbonyl)-2-(3-((R)-1-(4-methyl-1H-pyrazol-3-yl)propan-2-yl)phenyl)-4-(trifluoromethyl)isoindolin-1-one]
Cbl-b [1]
  IC50: ≤ 100 nM
T-cell [2]
  fold induction at 0.3 µM: 1.01 to 1.3
  fold induction at 1 µM: 1.01 to 1.3
  fold induction at 4 µM: 1.31 to 1.5
Cbl-b [3]
  IC50: < 100 nM
Cbl-b (residues 36-427)
  Kd: < 100 nM
T-cell [4]
  fold induction at 1 µM: > 1
  fold induction at 8 µM: > 1
T-cell [5]
  fold induction at 0.3 µM: 1.01 to 2.5
  fold induction at 1 µM: 2.51 to 5
  fold induction at 4 µM: > 7.5
T-cell [6]
  fold induction at 1 µM: 0.151 to 0.2
  fold induction at 8 µM: > 0.201

## C[C@H](Cc1n[nH]cc1C(F)(F)F)c1cccc(N2Cc3c(cc(C(=O)N4CC[C@H](O)C4)cc3C(F)(F)F)C2=O)c1 [Compound 465, 6-((S)-3-hydroxypyrrolidine-1-carbonyl)-4-(trifluoromethyl)-2-(3-((R)-1-(4-(trifluoromethyl)-1H-pyrazol-3-yl)propan-2-yl)phenyl)isoindolin-1-one]
Cbl-b [1]
  IC50: ≤ 100 nM
T-cell [2]
  fold induction at 0.3 µM: 1.01 to 1.3
  fold induction at 1 µM: 1.01 to 1.3
  fold induction at 4 µM: 1.01 to 1.3
Cbl-b [3]
  IC50: < 100 nM
Cbl-b (residues 36-427)
  Kd: < 100 nM
T-cell [4]
  fold induction at 1 µM: 0.801 to 1
  fold induction at 8 µM: > 1
T-cell [5]
  fold induction at 0.3 µM: 1.01 to 2.5
  fold induction at 1 µM: 1.01 to 2.5
  fold induction at 4 µM: 2.51 to 5
T-cell [6]
  fold induction at 1 µM: 0.051 to 0.1
  fold induction at 8 µM: 0.151 to 0.2

## C[C@@H](c1cccc(N2Cc3c(cccc3C(F)(F)F)C2=O)c1)C(F)(F)c1nncn1C [Compound 467a, (S)-2-(3-(1,1-difluoro-1-(4-methyl-4H-1,2,4-triazol-3-yl)propan-2-yl)phenyl)-4-(trifluoromethyl)isoindolin-1-one]
Cbl-b [1]
  IC50: ≤ 300 nM
T-cell [2]
  fold induction at 0.3 µM: 1.01 to 1.3
  fold induction at 1 µM: 1.01 to 1.3
  fold induction at 4 µM: 1.01 to 1.3
Cbl-b [3]
  IC50: 100 to 300 nM
Cbl-b (residues 36-427)
  Kd: 301 to 1000 nM
T-cell [4]
  fold induction at 1 µM: 0.601 to 0.8
  fold induction at 8 µM: 0.801 to 1
T-cell [5]
  fold induction at 0.3 µM: 1.01 to 2.5
  fold induction at 1 µM: 1.01 to 2.5
  fold induction at 4 µM: 2.51 to 5
T-cell [6]
  fold induction at 1 µM: < 0.05
  fold induction at 8 µM: 0.101 to 0.15

## Cn1cnnc1C[C@H](c1cccc(N2Cc3c(cccc3C(F)(F)F)C2=O)c1)C(F)(F)F [Compound 471a, (R)-2-(3-(1,1,1-trifluoro-3-(4-methyl-4H-1,2,4-triazol-3-yl)propan-2-yl)phenyl)-4-(trifluoromethyl)isoindolin-1-one]
Cbl-b [1]
  IC50: ≤ 300 nM
T-cell [2]
  fold induction at 0.3 µM: 1.01 to 1.3
  fold induction at 1 µM: 1.01 to 1.3
  fold induction at 4 µM: 1.01 to 1.3
Cbl-b [3]
  IC50: 100 to 300 nM
Cbl-b (residues 36-427)
  Kd: 301 to 1000 nM
T-cell [4]
  fold induction at 1 µM: 0.601 to 0.8
  fold induction at 8 µM: 0.801 to 1
T-cell [5]
  fold induction at 0.3 µM: 1.01 to 2.5
  fold induction at 1 µM: 1.01 to 2.5
  fold induction at 4 µM: 1.01 to 2.5
T-cell [6]
  fold induction at 1 µM: 0.051 to 0.1
  fold induction at 8 µM: 0.101 to 0.15

From patent publication US20220324835A1 (Nurix Therapeutics, Inc., priority 2018, published 2022)
